# Assay results reported in paper PMC12589998, “Development and validation of a UHPLC-QqQ-MS/MS method for simultaneous determination of fifteen major components from Oroxyli seed extract in rat plasma and its application in the pharmacokinetic study” (Frontiers in Pharmacology, 2025).
# Columns and labels:
# [1] = Stability of the analytes in rat plasma samples under storage conditions; format: physicochemical; settings: n = 6
# Procedure, shortened: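 Rat plasma samples containing the flavonoid analytes held for 12 h in an autosampler, 4 h at room temperature, three freeze–thaw cycles, and 7 days at −80 °C. Quantified by LC-MS against IS-normalised calibration curves (1/x^2 weighting). Stability expressed as RSD.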
# [2] = Pharmacokinetic study in rats after oral administration of OS extract (UHPLC-QqQ-MS/MS of plasma); format: in vivo, rat; settings: male
# Procedure, shortened: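 Six fasted male SD rats given 3 g/kg extract orally in 0.5% CMC-Na; plasma sampled pre-dose to 48 h. Plasma protein-precipitated with acetonitrile (methylparaben IS), analysed by UHPLC (C18, 35 °C, formic acid/acetonitrile gradient) with negative-ion QqQ-MS/MS. Parameters reported as mean ± SD.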
structure (smiles),measurement,setting,value
"O=c1cc(-c2ccc(O)cc2)oc2cc(O)c(O)c(O)c12 [Scutellarein, scutellarein]","Measured, -80°C for 7 days",[1]; spiked concentration 2 ng/mL,1.77 ± 0.12 ng/mL
same,"Measured, Autosampler for 12 h",[1]; spiked concentration 2 ng/mL,2.05 ± 0.22 ng/mL
same,"Measured, Room temperature for 4 h",[1]; spiked concentration 2 ng/mL,1.84 ± 0.17 ng/mL
same,"Measured, Three freeze-thaw cycles",[1]; spiked concentration 2 ng/mL,1.78 ± 0.13 ng/mL
same,"Measured, -80°C for 7 days",[1]; spiked concentration 20 ng/mL,19.80 ± 0.92 ng/mL
same,"Measured, Autosampler for 12 h",[1]; spiked concentration 20 ng/mL,19.68 ± 1.68 ng/mL
same,"Measured, Room temperature for 4 h",[1]; spiked concentration 20 ng/mL,18.12 ± 0.51 ng/mL
same,"Measured, Three freeze-thaw cycles",[1]; spiked concentration 20 ng/mL,21.33 ± 0.83 ng/mL
same,"Measured, -80°C for 7 days",[1]; spiked concentration 320 ng/mL,296.10 ± 18.07 ng/mL
same,"Measured, Autosampler for 12 h",[1]; spiked concentration 320 ng/mL,327.40 ± 16.47 ng/mL
same,"Measured, Room temperature for 4 h",[1]; spiked concentration 320 ng/mL,316.24 ± 35.36 ng/mL
same,"Measured, Three freeze-thaw cycles",[1]; spiked concentration 320 ng/mL,292.73 ± 17.80 ng/mL
same,concentration at 0.5 h,"[2]; SD, 3 g/kg, rat plasma collected 0.5 h after oral administration of the OS extract, read-out: Concentration printed in MRM chromatogram of plasma sample (Figure 2C)",14 ng/mL
same,AUC(0-t),"[2]; rat plasma, oral 3 g/kg OS extract, n = 6, mean ± SD, read-out: AUC(0-t)",89.4 ± 18.5 ng·h/mL
same,AUC(0-inf),"[2]; rat plasma, oral 3 g/kg OS extract, n = 6, mean ± SD, read-out: AUC(0-∞)",95.6 ± 17.5 ng·h/mL
same,Cmax,"[2]; rat plasma, oral 3 g/kg OS extract, n = 6, mean ± SD, read-out: Cmax",47.8 ± 15.1 ng/mL
same,half-life,"[2]; rat plasma, oral 3 g/kg OS extract, n = 6, mean ± SD, read-out: T1/2 (converted)",4.07 ± 1.61 h
same,Tmax,"[2]; rat plasma, oral 3 g/kg OS extract, n = 6, mean ± SD, read-out: Tmax",6 ± 2.4 min
